From US11505528B2, “Inhibitors of microbially induced amyloid” (Axial Therapeutics, Inc., priority 2017, dated 2022) come the findings set out here.

“Also recorded” adds a separate entry of the source.

For test [1], the system named is Thy1-αSyn mice (ASO) mono-colonized with WT E. coli. Put plainly: Motor function of germ-free Thy1-αSyn (ASO) mice mono-colonized with WT E. coli, EGCG in drinking water. The class given is in vivo.
The subject of the next test is αSyn aggregates. As to the kind of experiment: αSyn aggregates in brain of ASO mice mono-colonized with WT E. coli, EGCG in drinking water. The class given is in vivo.
Setting [2] is: 15-16 weeks of age, EGCG ad lib in drinking water, vs vehicle treated control.

Consider `O=C(O[C@@H]1Cc2c(O)cc(O)cc2O[C@@H]1c1cc(O)c(O)c(O)c1)c1cc(O)c(O)c(O)c1` [EGCG, epigallocatechin gallate], for which, in test [1] (setting [2]), the “beam traversal time (time to cross)” value is given as “lower”, the hindlimb clasping score entry is reported as “lower”, the “nasal adhesive removal time (time to remove)” value is on record as “lower” and the “pole descent time (time to descent)” value is on record as “lower”. Further, in test [1] (setting [2]), the “wire hang test (time to fall)” value is “higher”. The “progressive motor deficits exacerbated by E. coli” value in test [1] (assessment of motor performance, EGCG treatment) is on record as “dampens”. Further, in the test on αSyn aggregates (EGCG treatment), the “αSyn aggregation in the striatum and midbrain” value is recorded as “preventing”. In the test on αSyn aggregates (immunofluorescence microscopy, EGCG-treated vs vehicle/untreated controls), the “Proteinase K resistant αSyn aggregates in the substantia nigra” value is recorded as “lower; also recorded: Fewer”.
